Laboratory results from patent US8318657B2, “Methods and compositions for preventing and/or treating pancreatitis” (Flinders Technologies Pty Ltd., priority 2005, dated 2012).
“Also recorded” adds a separate entry of the source. Square brackets hold non-standard residues; d marks the D form. Ends that are not written are not given here. Peptide text beside a SMILES is read from it.

Assays:
[1] = system: caerulein-induced acute pancreatitis (AP) in mice; assay: Caerulein-induced acute pancreatitis in mice (mild model, 7 hourly i.p. injections) with galanin or galanin antagonists; assay type: in vivo, mouse (female Balb C or Swiss); conditions: mouse caerulein AP
[2] = system: mice without acute pancreatitis; assay: Control groups: mice given galanin or galanin antagonist alone (saline, no caerulein); conditions: mice without AP
GALR2 = target: T1, GALR2 (Homo sapiens, UniProt O43603); conditions: GALR2 vs GALR1; cited from earlier work
T1 sequence (O43603 1-387): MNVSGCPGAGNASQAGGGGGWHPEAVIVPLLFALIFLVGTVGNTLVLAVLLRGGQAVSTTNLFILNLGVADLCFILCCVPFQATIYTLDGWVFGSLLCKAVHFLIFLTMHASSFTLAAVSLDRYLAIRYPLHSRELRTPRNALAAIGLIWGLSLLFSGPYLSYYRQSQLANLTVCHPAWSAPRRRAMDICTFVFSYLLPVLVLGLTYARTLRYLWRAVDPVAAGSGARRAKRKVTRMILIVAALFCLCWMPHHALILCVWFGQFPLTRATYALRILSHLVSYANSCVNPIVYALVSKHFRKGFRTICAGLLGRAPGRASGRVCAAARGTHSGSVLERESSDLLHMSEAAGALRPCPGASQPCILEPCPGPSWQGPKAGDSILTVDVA

[3] = 20 nmol/kg i.p. with each caerulein injection, reduction of AP-induced level
[4] = 40 nmol/kg i.p. with each caerulein injection, vs AP alone
[5] = dose not given (20 and 40 nmol/kg tested)
[6] = dose not given (20 and 40 nmol/kg tested), decrease of AP-induced level
[7] = 40 nmol/kg i.p. with each caerulein injection, reduction of AP-induced level

Galanin(1-13)-Pro-Pro-Ala-Leu-Ala-Leu-Ala amide (GWTLNSAGYLLGPPPALALA-NH2) [M40]
pancreatic acinar cell vacuolization score ([1]; 20 nmol/kg): significantly reduced | pancreatic myeloperoxidase (MPO) activity [1, 3]: significantly reduced | pancreatic acinar cell vacuolization score ([1]; 40 nmol/kg): significantly reduced | pancreatic myeloperoxidase (MPO) activity [1, 4]: significantly reduced | pancreatitis-induced plasma hyperenzymemia ([1]; co-treatment, 20 and 40 nmol/kg tested): failure to reduce the pancreatitis-induced plasma hyperenzymemia | pancreatic acinar cell necrosis score [1, 5]: without effect | pancreatic acinar cell vacuolization score [1, 5]: did | pancreatic myeloperoxidase (MPO) activity [1, 6]: decreased

CC(C)C[C@H](NC(=O)CNC(=O)[C@H](CC(N)=O)NC(=O)[C@H](CCCCN)NC(=O)[C@H](CC(=O)O)NC(=O)[C@H](CO)NC(=O)[C@H](Cc1ccccc1)NC(=O)[C@H](CO)NC(=O)[C@H](CCCNC(=N)N)NC(=O)[C@H](Cc1cnc[nH]1)NC(=O)[C@H](CC(N)=O)NC(=O)CNC(=O)[C@@H](NC(=O)[C@H](C)NC(=O)[C@H](Cc1cnc[nH]1)NC(=O)[C@@H]1CCCN1C(=O)CNC(=O)[C@H](CC(C)C)NC(=O)[C@H](CC(C)C)NC(=O)[C@H](Cc1ccc(O)cc1)NC(=O)CNC(=O)[C@H](C)NC(=O)[C@H](CO)NC(=O)[C@H](CC(N)=O)NC(=O)[C@H](CC(C)C)NC(=O)[C@@H](NC(=O)[C@H](Cc1c[nH]c2ccccc12)NC(=O)CN)[C@@H](C)O)C(C)C)C(=O)N[C@H](C(=O)N[C@@H](CO)C(=O)O)[C@@H](C)O [Galanin]
plasma amylase activity ([2]; 10 nmol/kg alone, vs baseline): did not increase plasma amylase activity above baseline activity | plasma lipase activity ([2]; 10 nmol/kg alone, vs baseline): did not increase plasma lipase activity above baseline activity | pancreatic myeloperoxidase (MPO) activity ([2]; 10 nmol/kg alone, vs saline control): did not significantly increase pancreatic MPO activity above that measured in saline control

Galanin 2-29: galanin fragment 2-29 (WTLNSAGYLLGPHAVGNHRSFSDKNGLT; ends and bridges not checked; UniProt P22466 34-61, looked up, fragment)
affinity for GALR2 relative to GALR1 (GALR2): higher affinity than GALR1

M35: GWTLNSAGYLLGPPPGFSPFR (SEQ ID NO: 15); amino terminal portion of galanin linked to bradykinin
pancreatic myeloperoxidase (MPO) activity [1, 3]: significantly reduced | pancreatic acinar cell necrosis score ([1]; 40 nmol/kg (high dose), histology scoring system): reduced the necrosis score; also recorded: significantly reduced | plasma amylase activity [1, 7]: depressed; also recorded: significantly reduced | plasma lipase activity [1, 7]: significantly reduced | pancreatic myeloperoxidase (MPO) activity [1, 4]: significantly reduced | pancreatic acinar cell vacuolization score [1, 5]: failed to improve the acute pancreatitic-induced vacuolization; also recorded: without effect | pancreatic myeloperoxidase (MPO) activity [1, 6]: decreased

CC(C)C[C@H](NC(=O)[C@H](CC(C)C)NC(=O)[C@@H](Cc1c[nH]c2ccccc12)NC(=O)[C@H](Cc1ccccc1)NC(=O)[C@@H](Cc1c[nH]c2ccccc12)NC(=O)[C@H](CCC(N)=O)NC(=O)[C@H](CCC(N)=O)NC(=O)[C@@H]1CCCN1C(=O)[C@H](CCCCN)NC(=O)[C@@H]1CCCN1C(=O)[C@@H](CCCNC(=N)N)NC(=O)[C@@H]1CCCN1C(=O)CNC(=O)[C@H](CC(C)C)NC(=O)[C@H](CC(C)C)NC(=O)[C@H](Cc1ccc(O)cc1)NC(=O)CNC(=O)[C@H](C)NC(=O)[C@H](CO)NC(=O)[C@H](CC(N)=O)NC(=O)[C@H](CC(C)C)NC(=O)[C@@H](NC(=O)[C@H](Cc1c[nH]c2ccccc12)NC(=O)CN)[C@@H](C)O)C(N)=O [C7, Galanin(1-13)-spantide amide] (H-GWTLNSAGYLLGP[dR]PKPQQ[dW]F[dW]LL-NH2)
pancreatic myeloperoxidase (MPO) activity ([2]; 40 nmol/kg alone): produced an increase in pancreatic MPO activity; also recorded: significantly elevated pancreatic MPO activity
